# Read-outs that look alike come from different tables or passages of the source.
# Target: T1, HDM2 (Homo sapiens, UniProt Q00987)
# T1 construct: Thioredoxin (N); made in house; host or cells: E. coli strain BL21(DE3)Rosetta
# Test: HDM2 FRET assay (inhibition of binding of FITC labeled p53-pocket peptide to HDM2)
# Settings: read-out: FRET IC50
# Outline: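 Compounds were tested in 10-point serial dilution against 0.5 nM recombinant HDM2 binding 3 nM fluorescein-labeled p53-pocket peptide. Detection used 0.25 nM terbium cryptate anti-6xHis antibody in PBS buffer containing 0.01% BSA and 0.01% Tween-20.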
# [1] = 0.5 nM HDM2 (residues 17 to 125), 3nM peptide, two hour incubation at room temperature
# T1 sequence (Q00987 17-125): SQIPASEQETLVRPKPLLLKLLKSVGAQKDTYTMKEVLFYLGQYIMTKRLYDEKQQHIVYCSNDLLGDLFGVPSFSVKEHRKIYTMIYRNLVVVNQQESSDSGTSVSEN
structure (smiles),measurement,setting,value
"C[C@@H]1CN(C(=O)CO)CCN1c1nc2nc(-c3noc(=O)[nH]3)nc(N[C@H](C)C3CCC3)c2n1C[C@H]1CC[C@H](C)CC1 [Example 17.18, 3-(6-{[(1R)-1-cyclobutylethyl]amino}-8-[(2R)-4-(hydroxyacetyl)-2-methylpiperazin-1-yl]-7-[(trans-4-methylcyclohexyl)methyl]-7H-purin-2-yl)-1,2,4-oxadiazol-5(4H)-one]",IC50,Table 17.2,3.79 nM
"C[C@@H](Nc1nc(C(=O)O)nc2nc(N3CCOC(C(F)(F)F)C3)n(Cc3ccc(C(F)(F)F)cc3)c12)C1CCC1 (stereo partly drawn) [Example 9.23, 6-{[(1R)-1-cyclobutylethyl]amino}-7-[4-(trifluoromethyl)benzyl]-8-[2-(trifluoromethyl)morpholin-4-yl]-7H-purine-2-carboxylic acid]",IC50,Table 9,25.2 nM
"C[C@@H](Nc1nc(C(=O)O)nc2nc(C(=O)N[C@@H](CO)c3ccccc3)n(Cc3ccc(C(F)(F)F)cc3)c12)C1CCC1 [Example 10.15, 6-(((R)-1-cyclobutylethyl)amino)-8-(((R)-2-hydroxy-1-phenylethyl)carbamoyl)-7-(4-(trifluoromethyl)benzyl)-7H-purine-2-carboxylic acid]",IC50,Table 10,202 nM
"Cc1cnc(-c2nc3nc(C(=O)O)nc(N[C@H](C)C4CCC4)c3n2C[C@H]2CC[C@H](C)CC2)cc1C [Example 15.21, 6-{[(1R)-1-cyclobutylethyl]amino}-8-(4,5-dimethylpyridin-2-yl)-7-[(trans-4-methylcyclohexyl)methyl]-7H-purine-2-carboxylic acid]",IC50,[1],8.44 nM
"Cc1cccc(-c2nc3nc(C(=O)O)nc(NC4CCCC4C)c3n2Cc2ccc(C(F)(F)F)cc2)c1 (centres unmarked) [Example 6.21, 6-[(2-methylcyclopentyl)amino]-8-(3-methylphenyl)-7-[4-(trifluoromethyl)benzyl]-7H-purine-2-carboxylic acid]",IC50,Table 6,422 nM
"C[C@@H](Nc1nc(C(=O)O)nc2nc(CN(C)Cc3ccccc3)n(Cc3ccc(C(F)(F)F)cc3)c12)C1CCC1 [Example 10.13, (R)-8-((benzyl(methyl)amino)methyl)-6-((1-cyclobutylethyl)amino)-7-(4-(trifluoromethyl)benzyl)-7H-purine-2-carboxylic acid]",IC50,Table 10,47.7 nM
"C[C@@H](Nc1nc(C(=O)O)nc2nc(N(C)[C@@H](C)c3ccccc3)n(Cc3ccc(C(F)(F)F)cc3)c12)C1CCC1 [Example 9.37, 6-{[(1R)-1-cyclobutylethyl]amino}-8-{methyl[(1S)-1-phenylethyl]amino}-7-[4-(trifluoromethyl)benzyl]-7H-purine-2-carboxylic acid]",IC50,Table 9,21.6 nM
"CC(C)C1CCCCN1c1nc2nc(C(=O)O)nc(N[C@H](C)C3CCC3)c2n1C[C@H]1CC[C@H](C)CC1 (stereo partly drawn) [Example 11.54, 6-{[(1R)-1-cyclobutylethyl]amino}-7-[(trans-4-methylcyclohexyl)methyl]-8-[2-(1-methylethyl)piperidin-1-yl] -7H-purine-2-carboxylic acid]",IC50,Table 11,3.31 nM
"C[C@@H](Nc1nc(-c2noc(=O)[nH]2)nc2nc(N3CCOCC3c3ccc(Cl)cc3)n(C[C@H]3CC[C@H](C)CC3)c12)C1CCC1 (stereo partly drawn) [Example 11.99, 3-{8-[3-(4-chlorophenyl)morpholin-4-yl]-6-{[(1R)-1-cyclobutylethyl]amino}-7-[(trans-4-methylcyclohexyl)methyl]-7H-purin-2-yl}-1,2,4-oxadiazol-5(4H)-one]",IC50,Table 11,3.43 nM
"C[C@H]1CC[C@H](Cn2c(N3CCOC[C@H]3c3ccccc3)nc3nc(-c4n[nH]c(=O)o4)nc(Oc4ccc(Cl)cn4)c32)CC1 [Example 25.3, 5-{6-[(5-chloropyridin-2-yl)oxy]-7-[(trans-4-methylcyclohexyl)methyl]-8-[(3R)-3-phenylmorpholin-4-yl]-7H-purin-2-yl}-1,3,4-oxadiazol-2(3H)-one]",IC50,Table 25,20.1 nM
"Cc1cccc(-c2nc(-c3n[nH]c(=O)o3)nc3nc(N4CCOCC4)n(C[C@H]4CC[C@H](C)CC4)c23)c1 [Example 16.3, 5-(7-(((trans)-4-methylcyclohexyl)methyl)-8-morpholino-6-(m-tolyl)-7H-purin-2-yl)-1,3,4-oxadiazol-2(3H)-one]",IC50,[1],563 nM
"CC(=O)N1CCN(c2nc3nc(-c4noc(=O)[nH]4)nc(N[C@H](C)C4CCC4)c3n2C[C@H]2CC[C@H](C)CC2)[C@H](c2ccccc2)C1 [Example 17.10, 3-{8-[(2R)-4-acetyl-2-phenylpiperazin-1-yl]-6-{[(1R)-1-cyclobutylethyl]amino}-7-[(trans-4-methylcyclohexyl)methyl]-7H-purin-2-yl}-1,2,4-oxadiazol-5(4H)-one]",IC50,Table 17.2,0.215 nM
"C[C@@H](Nc1nc(N2CCC[C@H]2C(=O)O)nc2nc(N3CCOC[C@H]3c3ccccc3)n(C[C@H]3CC[C@H](C)CC3)c12)C1CCC1 [Example 13.2, 1-(6-{[(1R)-1-cyclobutylethyl]amino}-7-[(trans-4-methylcyclohexyl)methyl]-8-[(3R)-3-phenylmorpholin-4-yl]-7H-purin-2-yl)-L-proline]",IC50,[1],987 nM
"C[C@@H](Nc1nc(-c2noc(=O)[nH]2)nc2nc(N3CCCCC3CF)n(C[C@H]3CC[C@H](C)CC3)c12)C1CCC1 (stereo partly drawn) [Example 11.40, 3-(6-{[(1R)-1-cyclobutylethyl]amino}-8-[2-(fluoromethyl)piperidin-1-yl]-7-[(trans-4-methylcyclohexyl)methyl]-7H-purin-2-yl)-1,2,4-oxadiazol-5(2H)-one]",IC50,Table 11,8.52 nM
"CC(=O)c1nc(N[C@H](C)C2CCC2)c2c(n1)nc(N1CCOC[C@H]1c1ccccc1)n2C[C@H]1CC[C@H](C)CC1 [Example 12.23, 1-(6-{[(1R)-1-cyclobutylethyl]amino}-7-[(trans-4-methylcyclohexyl)methyl]-8-[(3R)-3-phenylmorpholin-4-yl]-7H-purin-2-yl)ethanone]",IC50,[1],53.3 nM
"C[C@H]1OCCN(c2nc3nc(-c4n[nH]c(=O)o4)nc(-c4cncc(Cl)c4)c3n2C[C@H]2CC[C@H](C)CC2)[C@@H]1c1ccccc1 [Example 16.133, 5-{6-(5-chloropyridin-3-yl)-7-[(trans-4-methylcyclohexyl)methyl]-8-[(2R,3R)-2-methyl-3-phenylmorpholin-4-yl]-7H -purin-2-yl}-1,3,4-oxadiazol-2(3H)-one]",IC50,[1],0.569 nM
"C[C@@H](Nc1nc(C(=O)O)nc2nc(C(=O)N3CCCC(C)(C)C3)n(Cc3ccc(C(F)(F)F)cc3)c12)C1CCC1 [Example 10.21, (R)-6-((1-Cyclobutylethyl)amino)-8-(3,3-dimethylpiperidine-1-carbonyl)-7-(4-(trifluoromethyl)benzyl)-7H-purine-2-carboxylic acid]",IC50,Table 10,22.3 nM
"C[C@H]1CC[C@H](Cn2c(N3CCOCC3)nc3nc(-c4noc(=O)[nH]4)nc(-c4cccc(Cl)c4)c32)CC1 [Example 16.1, 3-(6-(3-chlorophenyl)-7-(((trans)-4-methylcyclohexyl)methyl)-8-morpholino-7H-purin-2-yl)-1,2,4-oxadiazol-5(4H)-one]",IC50,[1],71.7 nM
"C[C@@H](Nc1nc(-c2noc(=O)[nH]2)nc2nc(N3CCCC3C[S+](C)[O-])n(C[C@H]3CC[C@H](C)CC3)c12)C1CCC1 (single isomer, unassigned) [Example 11.154]",IC50,Table 11,70.7 nM
"C[C@@H](Nc1nc(C(=O)O)nc2nc(C3=C(c4ccccc4)CCCC3)n(Cc3ccc(C(F)(F)F)cc3)c12)C1CCC1 [Example 21.3, 6-{[(1R)-1-cyclobutylethyl]amino}-8-(2-phenylcyclohex-1-en-1-yl)-7-[4-(trifluoromethyl)benzyl]-7H-purine-2-carboxylic acid]",IC50,Table 21,5.82 nM
